In patent US8710038B2, “Pyrazole kinase modulators and methods of use” (Exelixis, Inc., priority 2004, dated 2014):

Tests used:
c-Kit = c-Kit (Homo sapiens, UniProt P10721); assay: c-Kit biochemical assay (AlphaScreen)
Method in brief: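 Kinase, compound, ATP and biotinylated poly(Glu,Tyr) 4:1 reacted 1 hr at ambient temperature; quenched with EDTA buffer (pH 7.4) containing streptavidin donor and anti-phosphotyrosine PY100 acceptor beads, incubated 16 hr, then AlphaScreen signal read to give IC50.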

EGFR = EGFR (Homo sapiens, UniProt P00533); assay: EGFR kinase inhibition assay; format: biochemical
EGFR, sequence (P00533 25-1210, species assumed): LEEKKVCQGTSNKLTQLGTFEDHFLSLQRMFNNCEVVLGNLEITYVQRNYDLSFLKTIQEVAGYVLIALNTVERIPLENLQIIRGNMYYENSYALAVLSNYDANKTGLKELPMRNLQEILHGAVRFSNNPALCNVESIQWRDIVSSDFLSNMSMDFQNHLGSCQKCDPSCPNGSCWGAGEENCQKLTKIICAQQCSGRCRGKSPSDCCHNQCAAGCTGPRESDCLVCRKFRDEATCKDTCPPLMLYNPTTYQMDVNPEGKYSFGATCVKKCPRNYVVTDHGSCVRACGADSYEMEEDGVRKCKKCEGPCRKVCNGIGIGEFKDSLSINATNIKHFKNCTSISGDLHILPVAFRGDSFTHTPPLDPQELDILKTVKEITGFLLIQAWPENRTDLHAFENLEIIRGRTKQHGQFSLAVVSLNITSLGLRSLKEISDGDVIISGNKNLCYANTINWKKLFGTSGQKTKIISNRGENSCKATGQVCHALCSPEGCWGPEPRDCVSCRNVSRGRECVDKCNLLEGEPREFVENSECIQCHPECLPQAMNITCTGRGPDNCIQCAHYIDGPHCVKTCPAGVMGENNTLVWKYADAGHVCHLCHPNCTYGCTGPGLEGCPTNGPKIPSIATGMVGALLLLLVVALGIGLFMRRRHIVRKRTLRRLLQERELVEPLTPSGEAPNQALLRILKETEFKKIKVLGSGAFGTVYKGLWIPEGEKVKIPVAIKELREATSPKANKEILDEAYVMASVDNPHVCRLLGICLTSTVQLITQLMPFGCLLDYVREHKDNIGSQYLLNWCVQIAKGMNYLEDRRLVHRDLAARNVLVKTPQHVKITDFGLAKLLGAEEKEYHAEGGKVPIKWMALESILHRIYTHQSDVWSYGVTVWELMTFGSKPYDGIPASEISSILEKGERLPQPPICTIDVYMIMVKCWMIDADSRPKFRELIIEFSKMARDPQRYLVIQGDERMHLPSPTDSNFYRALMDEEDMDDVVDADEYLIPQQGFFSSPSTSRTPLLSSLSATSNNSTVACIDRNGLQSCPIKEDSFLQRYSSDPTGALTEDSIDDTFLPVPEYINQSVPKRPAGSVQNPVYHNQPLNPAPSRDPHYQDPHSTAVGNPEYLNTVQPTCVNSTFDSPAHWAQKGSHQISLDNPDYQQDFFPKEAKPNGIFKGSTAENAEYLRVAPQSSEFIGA
Procedure: (§1) Kinase activity and compound inhibition are investigated using one or more of the three assay formats described below. The ATP concentrations for each assay are selected to be close to the Michaelis-Menten constant (KM) for each individual kinase. Dose-response experiments are performed at 10 different inhibitor concentrations in a 384-well plate format. The data are fitted to four-parameter equation (2) below; where Y is the observed signal, X is the inhibitor concentration, Min is the background signal in the absence of enzyme (0% enzyme activity), Max is the signal in the absence of inhibitor (100% enzyme activity), IC50 is the inhibitor concentration at 50% enzyme inhibition and H represents the empirical Hill's slope to measure the cooperativity. Typically H is close to unity. Y=Min+(Max−Min)/(1+(X/IC50)^H) Equation (2) ^33P Phosphoryl Transfer Assay: […]
(§2) Greiner 384-well white, clear bottom, high binding plates are coated with 2 μg/well of protein or peptide substrate in a 50 μL volume overnight at ambient temperature. The coating buffer typically contains 40 μg/mL substrate, 22.5 mM Na2CO3, 27.5 mM NaHCO3, 150 mM NaCl and 3 mM NaN3. The coating solution is aspirated and the plates are washed once with 50 μL of assay buffer and padded dry. Subsequently compounds and enzymes are mixed with γ^33P-ATP (3.3 μCi/nmol) in a total volume of 20 uL in suitable assay buffers. The mixture is incubated at ambient temperature for 1.5-2.5 hrs and terminated by aspiration using a Molecular Devices EMBLA 96-head plate washer. The plates are subsequently washed 6-12 times with PBST or TBS buffer. Scintillation fluid (50 μl/well) is then added, the plates are sealed and activity assessed by liquid scintillation spectrometry using a Perkin Elmer MicroBeta TriLux.
(§3) In the LCCA assays, kinase activity is measured as the percent ATP consumed following the kinase reaction using luciferase-luciferin-coupled chemiluminescence. Greiner 384-well white, clear bottom, medium-binding plates are used for LCCA. Briefly, the kinase reaction is initiated by mixing compounds, ATP and kinase in a 20 uL volume. The mixture is incubated at ambient temperature for 2-4 hrs. At the end of the kinase reaction, a 20 uL luciferase-luciferin mix is added and the chemiluminescent signal is read using a Wallac Victor^2 reader. The luciferase-luciferin mix consists of 50 mM HEPES, pH 7.8, 8.5 ug/mL oxalic acid (pH 7.8), 5 (or 50) mM DTT, 0.4% Triton X-100, 0.25 mg/mL coenzyme A, 63 uM AMP, 28 ug/mL luciferin and 40,000 units of light/mL luciferase. For the LCCA assays, total ATP consumption has been standardized to 25-45% and the IC50 values correlates well with those determined by radiometric assays.
(§4) AlphaScreen technology is a proximity assay which utilizes the increase in fluorescent signal occurring when donor and acceptor beads are close in proximity. Biotinylated poly(Glu,Tyr) 4:1 is used as the kinase substrate, in conjunction with streptavidin-coated donor beads and anti-phosphortyrosine antibody PY100-coated acceptor beads. Upon phosphorylation, the peptide substrate can bind to both donor and acceptor beads giving rise to an increase in fluorescence. Compounds, ATP, biotinylated poly(Glu, Tyr) and kinases are mixed in a volume of 20 uL for 1 hr at ambient temperature using Greiner 384-well white clear bottom medium binding plates. Following incubation a 10 uL solution containing […] AlphaScreen beads, 75 mM Hepes, pH 7.4, 300 mM NaCl, 120 mM EDTA, 0.3% BSA and 0.03% Tween-20 is added to each well. After 2-16 hr incubation of the beads, plates are read in a Perkin Elmer AlphaQuest reader. The IC50 values correlates well with those of radiometric assays.

EphB4 = molecular target: T1, EphB4 (Homo sapiens, UniProt P54760); assay: EphB4 kinase inhibition assay; format: biochemical
T1 sequence (P54760 16-987): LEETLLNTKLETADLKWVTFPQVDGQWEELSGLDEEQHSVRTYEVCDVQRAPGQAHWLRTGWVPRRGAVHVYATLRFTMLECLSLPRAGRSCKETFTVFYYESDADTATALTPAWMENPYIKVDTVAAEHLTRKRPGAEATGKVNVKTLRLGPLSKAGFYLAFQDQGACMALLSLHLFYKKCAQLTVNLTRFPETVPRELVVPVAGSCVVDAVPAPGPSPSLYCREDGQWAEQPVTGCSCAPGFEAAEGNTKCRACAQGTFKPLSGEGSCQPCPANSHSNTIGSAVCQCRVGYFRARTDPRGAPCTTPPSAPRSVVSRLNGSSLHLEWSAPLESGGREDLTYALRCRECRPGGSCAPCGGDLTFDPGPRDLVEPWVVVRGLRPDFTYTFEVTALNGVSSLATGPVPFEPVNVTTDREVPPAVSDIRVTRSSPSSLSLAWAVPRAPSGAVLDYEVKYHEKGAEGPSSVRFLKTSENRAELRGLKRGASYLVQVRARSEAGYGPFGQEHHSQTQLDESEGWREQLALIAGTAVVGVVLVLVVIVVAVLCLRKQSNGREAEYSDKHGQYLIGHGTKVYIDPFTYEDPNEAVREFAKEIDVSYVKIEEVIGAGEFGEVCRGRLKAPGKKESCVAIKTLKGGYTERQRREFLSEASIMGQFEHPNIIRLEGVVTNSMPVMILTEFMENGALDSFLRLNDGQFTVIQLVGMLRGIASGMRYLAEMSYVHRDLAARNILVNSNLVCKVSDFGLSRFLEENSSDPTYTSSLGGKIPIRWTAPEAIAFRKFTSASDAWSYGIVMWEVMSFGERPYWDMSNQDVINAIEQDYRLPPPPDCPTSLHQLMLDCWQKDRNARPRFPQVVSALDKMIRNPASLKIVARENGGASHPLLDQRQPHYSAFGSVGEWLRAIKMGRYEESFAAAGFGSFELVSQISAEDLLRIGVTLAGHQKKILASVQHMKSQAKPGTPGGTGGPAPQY
Procedure: as §1, §2, §3, §4

flt-3 = molecular target: T2, flt-3 (Homo sapiens, UniProt P36888); assay: flt-3 Luciferase-Coupled Chemiluminescent Kinase assay (LCCA); format: biochemical
T2 construct: baculovirus expressed human Flt-3 kinase domain R571-S993
T2 sequence (P36888 571-993): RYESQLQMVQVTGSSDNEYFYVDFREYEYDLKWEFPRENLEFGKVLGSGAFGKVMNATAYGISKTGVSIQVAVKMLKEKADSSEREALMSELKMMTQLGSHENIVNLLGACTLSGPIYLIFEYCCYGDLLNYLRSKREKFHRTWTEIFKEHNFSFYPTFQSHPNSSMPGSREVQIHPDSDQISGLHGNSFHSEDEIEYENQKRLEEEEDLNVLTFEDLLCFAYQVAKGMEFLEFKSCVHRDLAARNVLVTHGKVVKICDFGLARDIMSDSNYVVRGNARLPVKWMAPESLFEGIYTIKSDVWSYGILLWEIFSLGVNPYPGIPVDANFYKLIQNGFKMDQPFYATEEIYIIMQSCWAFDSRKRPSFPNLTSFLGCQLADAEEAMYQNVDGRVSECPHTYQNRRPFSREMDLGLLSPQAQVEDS
Method in brief: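 Baculovirus-expressed human Flt-3 kinase domain (R571-S993, 5 nM) was reacted with 5 μM ATP and 3 μM poly-EY in Tris pH 7.5 buffer with MgCl2/MnCl2 for 3 h at ambient temperature. Remaining ATP was read by luciferase-luciferin chemiluminescence, with ATP consumption standardized to 25-45%, for IC50.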

c-Kit, sequence (P10721 26-976): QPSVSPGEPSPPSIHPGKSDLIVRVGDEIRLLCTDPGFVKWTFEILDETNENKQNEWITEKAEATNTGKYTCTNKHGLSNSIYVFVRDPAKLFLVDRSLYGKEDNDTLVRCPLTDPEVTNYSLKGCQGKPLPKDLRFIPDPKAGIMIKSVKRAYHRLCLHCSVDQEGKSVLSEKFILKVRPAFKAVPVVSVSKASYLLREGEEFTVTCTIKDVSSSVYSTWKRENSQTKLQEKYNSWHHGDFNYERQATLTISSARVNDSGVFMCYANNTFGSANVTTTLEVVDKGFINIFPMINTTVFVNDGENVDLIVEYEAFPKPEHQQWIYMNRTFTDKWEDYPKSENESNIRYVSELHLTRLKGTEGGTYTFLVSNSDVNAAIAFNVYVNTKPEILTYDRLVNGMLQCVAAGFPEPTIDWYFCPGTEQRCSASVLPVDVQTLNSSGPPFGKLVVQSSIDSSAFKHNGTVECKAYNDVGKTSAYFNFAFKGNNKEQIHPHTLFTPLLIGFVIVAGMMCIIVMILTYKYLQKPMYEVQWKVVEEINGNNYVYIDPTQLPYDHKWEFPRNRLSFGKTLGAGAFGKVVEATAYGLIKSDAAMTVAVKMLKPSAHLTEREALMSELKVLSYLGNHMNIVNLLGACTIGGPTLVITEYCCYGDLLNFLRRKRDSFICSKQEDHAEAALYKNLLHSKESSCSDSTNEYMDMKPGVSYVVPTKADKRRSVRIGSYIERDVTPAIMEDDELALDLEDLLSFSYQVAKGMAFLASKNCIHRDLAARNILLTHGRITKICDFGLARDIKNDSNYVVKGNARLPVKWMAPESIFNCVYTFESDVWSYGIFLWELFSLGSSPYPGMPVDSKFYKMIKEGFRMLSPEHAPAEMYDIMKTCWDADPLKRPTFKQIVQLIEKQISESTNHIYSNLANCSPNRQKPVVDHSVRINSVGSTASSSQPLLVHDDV

SMILES	IC50 (c-Kit) [nM]	IC50 (EGFR) [nM]	IC50 (EphB4) [nM]	IC50 (flt-3) [nM]
CN1CCN(c2ccc3[nH]c(-c4cc(-c5ccc(NC(=O)Nc6ccc(F)cc6)cc5)[nH]n4)nc3c2)CC1 [Entry 23, N-(4-fluorophenyl)-N′-(4-{3-[5-(4-methylpiperazin-1-yl)-1H-benzimidazol-2-yl]-1H-pyrazol-5-yl}phenyl)urea]	< 50	> 5000	> 5000	< 50
CCN1CCN(c2ccc3nc(-c4cc(-c5ccc(NC(=O)Nc6ccc(F)cc6F)cc5)[nH]n4)[nH]c3c2)CC1 [Entry 29, N-(2,4-difluorophenyl)-N′-(4-{3-[6-(4-ethylpiperazin-1-yl)-1H-benzimidazol-2-yl]-1H-pyrazol-5-yl}phenyl)urea]	< 50	> 5000	> 5000	< 50
O=C(Nc1ccc(-c2cc(-c3nc4ccccc4[nH]3)n[nH]2)cc1)Nc1ccc(Cl)c(C(F)(F)F)c1 [Entry 30, N-{4-[3-(1H-benzimidazol-2-yl)-1H-pyrazol-5-yl]phenyl}-N′-[4-chloro-3-(trifluoromethyl)phenyl]urea]	< 50	> 5000	> 5000	< 50
O=C(Nc1ccc(-c2cc(-c3nc4ccccc4[nH]3)n[nH]2)cc1)Nc1cc(C(F)(F)F)ccc1F [Entry 31, N-{4-[3-(1H-benzimidazol-2-yl)-1H-pyrazol-5-yl]phenyl}-N′-[2-fluoro-5-(trifluoromethyl)phenyl]urea]	< 50	> 5000	> 5000	< 50
CN1CCN(c2ccc3[nH]c(-c4cc(-c5ccc(NC(=O)Nc6ccc(F)cc6F)cc5)[nH]n4)nc3c2)CC1 [Entry 32, N-(2,4-difluorophenyl)-N′-(4-{3-[5-(4-methylpiperazin-1-yl)-1H-benzimidazol-2-yl]-1H-pyrazol-5-yl}phenyl)urea]	< 50	> 5000	> 5000	< 50
CN1CCN(c2ccc3[nH]c(-c4cc(-c5ccc(NC(=O)Nc6cc(C(F)(F)F)cc(C(F)(F)F)c6)cc5)[nH]n4)nc3c2)CC1 [Entry 34, N-[3,5-bis(trifluoromethyl)phenyl]-N′-(4-{3-[5-(4-methylpiperazin-1-yl)-1H-benzimidazol-2-yl]-1H-pyrazol-5-yl}phenyl)urea]	< 50	> 5000	500 to 5000	< 50
CN1CCN(c2ccc3[nH]c(-c4cc(-c5ccc(NC(=O)Nc6ccccc6F)cc5)[nH]n4)nc3c2)CC1 [Entry 35, N-(2-fluorophenyl)-N′-(4-{3-[5-(4-methylpiperazin-1-yl)-1H-benzimidazol-2-yl]-1H-pyrazol-5-yl}phenyl)urea]	< 50	> 5000	> 5000	< 50
CN1CCN(c2ccc3[nH]c(-c4cc(-c5ccc(NC(=O)Nc6ccccc6)cc5)[nH]n4)nc3c2)CC1 [Entry 39, N-(4-{3-[5-(4-methylpiperazin-1-yl)-1H-benzimidazol-2-yl]-1H-pyrazol-5-yl}phenyl)-N′-phenylurea]	50 to 500	> 5000	> 5000	< 50

The remaining lines, values ahead:

IC50 (c-Kit) [nM]	IC50 (EGFR) [nM]	IC50 (EphB4) [nM]	IC50 (flt-3) [nM]	SMILES
< 50	> 5000	> 5000	< 50	CN1CCN(c2ccc3[nH]c(-c4cc(-c5ccc(NC(=O)Nc6ccc(F)c(F)c6)cc5)[nH]n4)nc3c2)CC1 [Entry 25, N-(3,4-difluorophenyl)-N′-(4-{3-[5-(4-methylpiperazin-1-yl)-1H-benzimidazol-2-yl]-1H-pyrazol-5-yl}phenyl)urea]
< 50	> 5000	> 5000	< 50	Oc1ccc(/C=C/c2cc(/C=C/c3ccccc3)[nH]n2)cc1 [Entry 36, 4-((E)-2-{5-[(E)-2-phenylethenyl]-1H-pyrazol-3-yl}ethenyl)phenol]
< 50	> 5000	500 to 5000	< 50	COc1cc(/C=C/c2cc(/C=C/c3ccccc3)[nH]n2)ccc1O [Entry 37, 2-(methyloxy)-4-((E)-2-{5-[(E)-2-phenylethenyl]-1H-pyrazol-3-yl}ethenyl)phenol]
50 to 500	> 5000	> 5000	< 50	CN1CCN(c2ccc(-c3cc(-c4ccc(NC(=O)Nc5ccc(F)cc5F)cc4)[nH]n3)cc2)CC1 [Entry 41, N-(2,4-difluorophenyl)-N′-(4-{3-[4-(4-methylpiperazin-1-yl)phenyl]-1H-pyrazol-5-yl}phenyl)urea]
50 to 500	> 5000	> 5000	< 50	CN1CCN(c2ccc(-c3cc(-c4ccc(NC(=O)Nc5ccc6c(c5)OCCO6)cc4)n[nH]3)cc2)CC1 [Entry 42, N-(2,3-dihydro-1,4-benzodioxin-6-yl)-N′-(4-{5-[4-(4-methylpiperazin-1-yl)phenyl]-1H-pyrazol-3-yl}phenyl)urea]
